Measurements published in patent publication US20040143865A1, “Transgenic zebrafish models for angiogenesis” (priority 2002, published 2004).
“Also recorded” adds a separate entry of the source.

Key:
zebrafish blood vessels = settings: Chan et al., 2002; cited from earlier work
[1] = patients treated in clinical trials; cited from earlier work
mouse xenograft models = mouse xenograft models (Shaheen et al., 1999); cited from earlier work
[2] = tested on: TG(VEGFR2:G-RCFP) transgenic zebrafish embryos; experiment: Angiogenesis inhibitor assay in TG(VEGFR2:G-RCFP) transgenic zebrafish embryos with fluorescent blood vessels; settings: for Intersegmental vessel formation: treated overnight from 13-somite stage (approximately 15 hpf); for Phenotypic response: cell wrapped over the compound's rows, in full: Dorsal aorta, caudal veins, present. Intersegmental vessels absent. Cranial vessels reduced in number.; for Concentrations of the compounds required to see these effects (complete block of intersegmental vessel formation) / Blood vessels in the head that form by angiogenesis: overnight application; for Blood vessels in the head that form by angiogenesis: 10 μM for SU5416 and 15 μM for SU6668; for Effect on pre-existing blood vessels: six-hour treatment at 24 hpf, well-established primary vasculature not affected; for Migration pattern of VEGFR2 expressing cells toward the midline: treated embryos at the 18 somite stage, versus control
[3] = tested on: vascular endothelial cell; settings: in vitro; cited from earlier work
[4] = 10 μM, stage at treatment 6 hpf, time treated 24 h
[5] = 10 μM, stage at treatment 15 hpf, time treated 24 h
[6] = 10 μM, stage at treatment 24 hpf, time treated 6 h

| SMILES | Metastases, microvessel formation and apoptosis (mouse xenograft models) | Percent full effect [2, 4] [%] | Percent full effect [2, 5] [%] | Percent full effect [2, 6] [%] | Phenotypic response [2] | Concentrations of the compounds required to see these effects (complete block of intersegmental vessel formation) [2] [µM] | Blood vessels in the head that form by angiogenesis [2] | Effect on pre-existing blood vessels [2] | Migration pattern of VEGFR2 expressing cells toward the midline [2] | VEGF-induced vascular endothelial cell proliferation [3] | also measured |
| --- | --- | --- | --- | --- | --- | --- | --- | --- | --- | --- | --- |
| Clc1ccc(Nc2nnc(Cc3ccncc3)c3ccccc23)cc1 [PTK787/ZK222584] | – | – | – | – | – | – | – | – | – | – | Formation of zebrafish blood vessels (zebrafish blood vessels): affect the formation of zebrafish blood vessels |
| Cc1cc(C)c(/C=C2\C(=O)Nc3ccccc32)[nH]1 [SU5416] | inhibit the formation of metastases and microvessel formation and increase apoptosis of both tumor cells and tumor endothelial cells | 100 | 100 | 100 | Dorsal aorta, caudal | 10 | blood vessels in the head that form by angiogenesis were not observed | disrupted pre- existing blood vessels | No difference was observed in the migration pattern of VEGFR2 expressing cells | inhibit VEGF-induced vascular endothelial cell proliferation in vitro | Plasma level [1]: 5 µM; Percent full effect ([2]; 5 μM, stage at treatment 6 hpf, time treated 24 h): 100%; Percent full effect ([2]; 5 μM, stage at treatment 15 hpf, time treated 24 h): 77%; Percent full effect ([2]; 5 μM, stage at treatment 24 hpf, time treated 6 h): 60%; Disruption of pre-existing intersegmental vessels ([2]; 10 μM for six hours beginning at 24 hpf, embryo at 30 hpf): A single intersegmental vessel (indicated by arrow) remains; Intersegmental vessel formation ([2]; 10 μM, embryo at 30 hpf): No intersegmental vessels are observed; also recorded: completely blocked intersegmental vessel formation; Percent full effect ([2]; 10 μM, stage at treatment 15 hpf, time treated 6 h): 100%; Recovery time of treated embryos ([2]; comparison SU5416 versus SU6668): required a longer recovery time than those treated with SU6668; Distribution in treated embryos ([2]; difficult to remove even after many hours of soaking in fresh water): highly concentrated in the yolk of treated embryos |
| Cc1[nH]c(/C=C2\C(=O)Nc3ccccc32)c(C)c1CCC(=O)O [SU6668] | inhibit the formation of metastases and microvessel formation and increase apoptosis of both tumor cells and tumor endothelial cells | 100 | 100 | 87 | Dorsal aorta, caudal | 15 | blood vessels in the head that form by angiogenesis were not observed | disrupted pre- existing blood vessels | No difference was observed in the migration pattern of VEGFR2 expressing cells | inhibit VEGF-induced vascular endothelial cell proliferation in vitro | Intersegmental vessel formation ([2]; 15 μM, embryo at 30 hpf): No intersegmental vessels are observed; also recorded: completely blocked intersegmental vessel formation; Percent full effect ([2]; 15 μM, stage at treatment 6 hpf, time treated 24 h): 100%; Percent full effect ([2]; 15 μM, stage at treatment 15 hpf, time treated 6 h): 100%; Percent full effect ([2]; 15 μM, stage at treatment 15 hpf, time treated 24 h): 100%; Percent full effect ([2]; 15 μM, stage at treatment 24 hpf, time treated 6 h): 100%; Intersegmental vessels after recovery ([2]; larva at 5 dpf, treated overnight with 15 μM at 2 dpf, recovered 3 days in fresh water, some vessels migrating abnormally): Intersegmental vessels are reforming |
